This note sets out measurements from DBAASP.

Assay in all cases: ≥ marks a high value that may be exact or a test limit, other limits are often not marked, values filed in µg/mL are converted to µM
The subject of assay [1] is Listeria monocytogenes EGD.
Assay [2] relates to Klebsiella pneumoniae ATCC 700603.
Assay [3] relates to Enterococcus faecium ATCC 700221.
Assay [4] has as its system Pseudomonas aeruginosa ATCC 27853.
In assay [5] the test system is Escherichia coli ATCC 25922.
The test system of assay [6] is Acinetobacter baumannii CR17.
Assay [7] has as its system Acinetobacter baumannii ATCC BAA-1605.
Assay [8] relates to Staphylococcus aureus ATCC 33591.
For assay [9], the system named is Acinetobacter baumannii ATCC 19606.
Assay [10] has as its system Escherichia coli.
Assay [11] relates to Escherichia coli BW25113.
Assay [12] deals with Staphylococcus aureus ATCC 25923.
In assay [13] the test system is Escherichia coli BW25113 ΔsbmA.

In brackets after ≈: the same amount, converted by molar mass.

With `CC[C@H](C)[C@H](NC(=O)[C@H](Cc1cnc[nH]1)NC(=O)[C@@H](NC(=O)[C@H](CCCN=C(N)N)NC(=O)[C@H](CCCCN)NC(=O)[C@H](CCCN=C(N)N)NC(=O)[C@H](CCCCN)NC(=O)[C@H](CC(N)=O)NC(=O)[C@H](Cc1ccc(O)cc1)NC(=O)[C@H](CC(N)=O)NC(=O)[C@@H]1CCCN1C(=O)[C@H](CCCN=C(N)N)NC(=O)[C@@H](NC(=O)[C@@H](N)CS)[C@@H](C)O)[C@@H](C)CC)C(=O)NCC(=O)O` [CTRPNYNKRKRIHIG], in [1], the MIC (as a rule, the lowest concentration found to suppress growth) came to 5.76 µM (≈ 10.7 µg/mL).
On to `CC[C@H](C)[C@H](NC(=O)[C@H](CCCCN)NC(=O)[C@H](CCCCN)NC(=O)[C@H](Cc1ccccc1)NC(=O)[C@H](CC(C)C)NC(=O)[C@H](CCCCN)NC(=O)[C@@H](N)CCCCN)C(=O)N[C@@H](CC(C)C)C(=O)N[C@@H](CCCN=C(N)N)C(=O)N[C@@H](Cc1ccc(O)cc1)C(=O)N[C@@H](CC(C)C)C(N)=O` [KKLFKKILRYL], for which the MIC was 5.86 µM (≈ 8.49 µg/mL) in [2]; 5.86 µM (≈ 8.49 µg/mL) in assay [3]; 11.7 µM (≈ 17 µg/mL) in [4]; 5.86 µM (≈ 8.49 µg/mL) in assay [5]; at least 32.7 µM in [6]; 2.76 µM (≈ 4 µg/mL) in assay [7]. In addition, the MIC in [8] is 23.1 µM (≈ 33.5 µg/mL); in assay [9], 5.86 µM (≈ 8.49 µg/mL).
Regarding `CC[C@H](C)[C@H](NC(=O)[C@@H]1CCCN1C(=O)[C@@H]1CCCN1C(=O)[C@H](CCCN=C(N)N)NC(=O)[C@H](Cc1ccccc1)NC(=O)[C@@H](N)CCCN=C(N)N)C(=O)N[C@@H](CCCN=C(N)N)C(=O)N[C@@H](CCCN=C(N)N)C(=O)N1CCC[C@H]1C(=O)N1CCC[C@H]1C(=O)N[C@H](C(=O)N[C@@H](CCCN=C(N)N)C(=O)N1CCC[C@H]1C(=O)N1CCC[C@H]1C(=O)N[C@@H](Cc1ccccc1)C(=O)N[C@@H](Cc1ccc(O)cc1)C(=O)N[C@@H](CCCN=C(N)N)C(=O)O)[C@@H](C)CC` [RFRPPIRRPPIRPPFYR], the minimum inhibitory concentration (MIC) in assay [2] is over 64 µM; in assay [4] it was over 64 µM; in assay [10], 4 µM (≈ 8.89 µg/mL); in assay [11], 8 µM (≈ 17.8 µg/mL); in assay [12], over 64 µM; in [9] it was 64 µM (≈ 142 µg/mL). This molecule returned a minimum inhibitory concentration (MIC) in assay [13] of at least 64 µM.
